{"source": "paper PMC12560758", "about": "“YsxC is a placeholder for ribosomal protein uL2 during 50S ribosomal subunit assembly” (Nucleic Acids Research, 2025)", "molecular_target": "T1, YsxC (Bacillus subtilis, UniProt P38424)", "T1 construct": "gene engB; full-length YsxC, 22 kDa, N-terminal His6 tag (pET15b-ysxC) cleaved by thrombin, expressed in E. coli BL21(DE3)", "T1 sequence (P38424 whole entry)": "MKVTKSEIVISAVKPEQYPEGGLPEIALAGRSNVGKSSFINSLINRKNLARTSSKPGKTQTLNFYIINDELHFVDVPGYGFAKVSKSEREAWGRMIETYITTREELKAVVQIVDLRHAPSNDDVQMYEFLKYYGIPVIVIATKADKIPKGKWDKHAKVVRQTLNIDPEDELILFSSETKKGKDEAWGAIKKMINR", "assay": "cryo-EM structure of the complex on the […].5S(YsxC) particle", "assay_type": "binding", "settings": "2 mM GMPPNP, 15 mM MgCl2, 50 mM NH4Cl, pH 7.5, 37 °C; nucleotide site; non-hydrolyzable GTP analogue", "data": [{"smiles": "Nc1nc2c(ncn2[C@@H]2O[C@H](COP(=O)(O)OP(=O)(O)NP(=O)(O)O)[C@@H](O)[C@H]2O)c(=O)[nH]1", "note": "[GMPPNP]", "values": [{"measurement": "cryo-EM structure of the complex on the 44.5S(YsxC) particle", "result": "the density corresponding to the GMPPNP nucleotide (colored in blue), are indicated"}]}]}
